The target of one assay is T1, hClpP (Homo sapiens, UniProt Q16740).
T1 construct: made in house
Put plainly: activating ClpP hydrolysis of FITC-casein (fluorescence kinetic detection). Type of assay: biochemical. The settings on record: hClpP 1 μM, FITC-Casein 4 μM, 37° C. The method, boiled down: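 hClpP at 1 μM final preincubated with compounds (assay-buffer dilutions 200 μM–2 nM, before mixing) 30 min at 37 °C, then 4 μM final FITC-casein added. Fluorescence read kinetically at 37 °C every 1 min for 15 min, duplicate wells.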

Another assay has as its system MV4; 11 cells. Put plainly: inhibiting the growth of MV4; 11 cells. Type of assay: cell-based. The following applies: Homo sapiens.

T1 sequence (Q16740 57-277): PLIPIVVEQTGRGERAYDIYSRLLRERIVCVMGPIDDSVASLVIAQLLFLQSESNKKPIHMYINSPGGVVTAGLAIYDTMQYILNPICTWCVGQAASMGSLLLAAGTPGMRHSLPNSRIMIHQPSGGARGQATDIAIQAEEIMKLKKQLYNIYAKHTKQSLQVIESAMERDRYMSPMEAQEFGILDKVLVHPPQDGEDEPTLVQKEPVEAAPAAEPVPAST

One may read the EC50 as the concentration needed to bring the measured effect to its halfway point. In general, IC50 refers to the concentration that gives 50% inhibition. A high value points to weaker potency in that assay. On hClpP, `Cc1cc(CN2CCc3c(c(=O)n(Cc4ccccc4)c4ncccc34)C2)n(C)n1` [Compound I-26, 6-benzyl-3-((1,3-dimethyl-1H-pyrazol-5-yl)methyl)-2,3,4,6-tetrahydropyrido[3,4-c][1,8]naphthyridine-5-(1H)-one] displayed an EC50 of 10000 to 100000 nM. The same molecule registered an IC50 with MV4; 11 cells of 1000 to 10000 nM.
As to `O=c1c2c(n3ccnc3n1Cc1ccc(F)cc1F)CCN(Cc1ccccc1)C2` [Compound I-122, 7-benzyl-4-(2,4-difluorobenzyl)-6,7,8,9-tetrahydroimidazo[1,2-a]pyrido[3,4-e]pyrimidine-5(4H)-one], on hClpP, the EC50 is under 1000 nM. The same molecule yielded an IC50 with MV4; 11 cells of under 1000 nM.
`O=c1c2c(c3cccnc3n1CC1CCC1)CCN(Cc1ccccc1)C2` [Compound I-37, 3-benzyl-6-(cyclobutylmethyl)-2,3,4,6-tetrahydropyrido[3,4-c][1,8]naphthyridine-5-(1H)-one]: the EC50 at hClpP is 10000 to 100000 nM. In the assay with MV4; 11 cells, the IC50 was in the range of 1000 to 10000 nM.
On the same counts, the results for `O=c1c2c(c3cccnc3n1Cc1ccc(F)cc1)CCN(Cc1cccc(Br)c1)C2` [Compound I-73, 3-(3-bromobenzyl)-6-(4-fluorobenzyl)-2,3,4,6-tetrahydropyrido[3,4-c][1,8]naphthyridine-5-(1H)-one] are under 1000 nM and under 1000 nM.
The like results for `COc1ccc(Cn2c(=O)c3c(c4cccnc42)CCN(Cc2cccc(Cl)c2)C3)cc1` [Compound I-100, 6-(4-methoxybenzyl)-3-(3-chlorobenzyl)-2,3,4,6-tetrahydropyrido[3,4-c][1,8]naphthyridine-5-(1H)-one] were, in that order, under 1000 nM and under 1000 nM.
The like results for `O=c1c2c(c3cncnc3n1Cc1ccc(C(F)(F)F)cc1)CCN(Cc1ccccc1)C2` [Compound I-81, 8-benzyl-5-(4-(trifluoromethyl)benzyl)-7,8,9,10-tetrahydropyrimidinyl[4,5-c][2,7]naphthyridine-6-(5H)-one] were, in that order, under 1000 nM and under 1000 nM.
Take `O=c1c2c(c3cccnc3n1Cc1ccc(F)cc1)CCN(Cc1ccccc1)C2` [Compound I-52, 3-benzyl-6-(4-fluorobenzyl)-2,3,4,6-tetrahydropyrido[3,4-c][1,8]naphthyridine-5-(1H)-one]: on hClpP, the EC50 was under 1000 nM. Also, in the assay on MV4; 11 cells, the 50% inhibitory concentration (IC50) was under 1000 nM.
Consider `Cc1noc(C)c1Cn1c(=O)c2c(c3cccnc31)CCN(Cc1ccccc1)C2` [Compound I-68, 3-benzyl-6-((3,5-dimethylisoxazol-4-yl)methyl)-2,3,4,6-tetrahydropyrido[3,4-c][1,8]naphthyridine-5-(1H)-one], for which the EC50 at hClpP fell in the range of 10000 to 100000 nM. Further, the IC50 in the assay on MV4; 11 cells lay in the range of 1000 to 10000 nM.
In turn, `O=c1c2c(n3ccnc3n1Cc1ccc(C(F)(F)F)cc1)CCN(Cc1ccccc1)C2` [Compound I-127, 7-benzyl-4-(4-trifluoromethylbenzyl)-6,7,8,9-tetrahydroimidazo[1,2-a]pyrido[3,4-e]pyrimidine-5(4H)-one] had an EC50 at hClpP of under 1000 nM. In addition, the IC50 with MV4; 11 cells is under 1000 nM.
For the molecule `O=c1c2c(c3cccnc3n1Cc1ccc(C(F)(F)F)cc1)CCN(Cc1ccccc1)C2` [Compound I-70, 3-benzyl-6-(4-(trifluoromethyl)benzyl)-2,3,4,6-tetrahydropyrido[3,4-c][1,8]naphthyridine-5-(1H)-one], the EC50 at hClpP was under 1000 nM. In the assay with MV4; 11 cells, the IC50 was under 1000 nM.
Take `O=c1c2c(n3ccnc3n1Cc1ccc3c(c1)OCCO3)CCN(Cc1cccc(Cl)c1)C2` [Compound I-148, 7-(3-chlorobenzyl)-4-((2,3-dihydro[1,4]benzodioxin-6-yl)methyl)-6,7,8,9-tetrahydroimidazo[1,2-a]pyrido[3,4-e]pyrimidine-5(4H)-one]: the EC50 on hClpP was in the range of 1000 to 10000 nM. The molecule further showed an IC50 in the assay with MV4; 11 cells of 1000 to 10000 nM.
In turn, `COc1ccc(CN2CCc3c(c(=O)n(Cc4ccccc4)c4ncccc34)C2)cc1` [Compound I-23, 6-benzyl-3-(4-methoxybenzyl)-2,3,4,6-tetrahydropyrido[3,4-c][1,8]naphthyridine-5-(1H)-one] showed an EC50 on hClpP of 1000 to 10000 nM. The molecule also displayed an IC50 in the assay with MV4; 11 cells of under 1000 nM.
On the same counts, the results for `N#Cc1cccc(CN2CCc3c(c(=O)n(Cc4ccc(Cl)cc4)c4cncn34)C2)c1` [Compound I-167, 7-(3-cyanobenzyl)-4-(4-chlorobenzyl)-6,7,8,9-tetrahydroimidazo[1,5-a]pyrido[3,4-e]pyrimidine-5(4H)-one] are 1000 to 10000 nM and 1000 to 10000 nM.
At hClpP, `N#Cc1cccc(CN2CCc3c(c(=O)n(Cc4ccccc4)c4nccn34)C2)c1` [Compound I-111, 7-(3-cyanobenzyl)-4-benzyl-6,7,8,9-tetrahydroimidazo[1,2-a]pyrido[3,4-e]pyrimidine-5(4H)-one] registered an EC50 of under 1000 nM. The molecule further returned a 50% inhibitory concentration (IC50) in the assay with MV4; 11 cells of under 1000 nM.
Consider `O=c1c2c(n3ccnc3n1Cc1ccc(F)cc1)CCN(Cc1cccc(F)c1)C2` [Compound I-113, 7-(3-fluorobenzyl)-4-(4-fluorobenzyl)-6,7,8,9-tetrahydroimidazo[1,2-a]pyrido[3,4-e]pyrimidine-5(4H)-one], for which the EC50 on hClpP was under 1000 nM. Further, the IC50 in the assay on MV4; 11 cells was under 1000 nM.
In the case of `N#Cc1cccc(CN2CCc3c(c(=O)n(Cc4ccc(C(F)(F)F)cc4)c4ncnn34)C2)c1` [Compound I-151, 4-(4-trifluoromethylbenzyl)-7-(3-cyanobenzyl)-6,7,8,9-tetrahydropyrido[3,4-e][1,2,4]triazolo[1,5-a]pyrimidine-5(4H)-one], the EC50 at hClpP is 1000 to 10000 nM. Further, the IC50 in the assay with MV4; 11 cells was in the range of 1000 to 10000 nM.
The molecule `COc1cccc(Cn2c(=O)c3c(c4cccnc42)CCN(Cc2ccccc2)C3)c1` [Compound I-51, 3-benzyl-6-(3-methoxybenzyl)-2,3,4,6-tetrahydropyrido[3,4-c][1,8]naphthyridine-5-(1H)-one] gave an EC50 on hClpP of under 1000 nM. Besides, the IC50 in the assay with MV4; 11 cells was under 1000 nM.
With `Cc1ccc(Cn2c(=O)c3c(c4cccnc42)CCN(Cc2cccc(F)c2)C3)cc1` [Compound I-93, 6-(4-methylbenzyl)-3-(3-fluorobenzyl)-2,3,4,6-tetrahydropyrido[3,4-c][1,8]naphthyridine-5-(1H)-one], the EC50 on hClpP was under 1000 nM. The IC50 with MV4; 11 cells is under 1000 nM.
Molecule `O=c1c2c(c3cccnc3n1Cc1ccccc1)CCN(Cc1cccc(Cl)c1)C2` [Compound I-13, 6-benzyl-3-(3-chlorobenzyl)-2,3,4,6-tetrahydropyrido[3,4-c][1,8]naphthyridine-5-(1H)-one] showed an EC50 on hClpP of under 1000 nM. This molecule registered an IC50 with MV4; 11 cells of under 1000 nM.
`COc1ccc(Cn2c(=O)c3c(c4cccnc42)CCN(Cc2ccccc2)C3)cc1` [Compound I-57, 3-benzyl-6-(4-methoxybenzyl)-2,3,4,6-tetrahydropyrido[3,4-c][1,8]naphthyridine-5-(1H)-one] displayed a half-maximal effective concentration (EC50) on hClpP of under 1000 nM. Moreover, the IC50 in the assay on MV4; 11 cells is under 1000 nM.
`Cc1ccc(Cn2c(=O)c3c(c4cccnc42)CCN(Cc2cccc(Cl)c2)C3)cc1` [Compound I-92, 6-(4-methylbenzyl)-3-(3-chlorobenzyl)-2,3,4,6-tetrahydropyrido[3,4-c][1,8]naphthyridine-5-(1H)-one]: on hClpP, the EC50 was under 1000 nM. The molecule further came in with an IC50 in the assay with MV4; 11 cells of under 1000 nM.
In turn, `N#Cc1cccc(CN2CCc3c(c(=O)n(Cc4ccc(F)cc4)c4nccn34)C2)c1` [Compound I-116, 7-(3-cyanobenzyl)-4-(4-fluorobenzyl)-6,7,8,9-tetrahydroimidazo[1,2-a]pyrido[3,4-e]pyrimidine-5(4H)-one] showed an EC50 on hClpP of under 1000 nM. Also, in the assay on MV4; 11 cells, the IC50 is under 1000 nM.
Turning to `O=c1c2c(n3ccnc3n1Cc1ccccc1)CCN(Cc1cccc(Cl)c1)C2` [Compound I-109, 7-(3-chlorobenzyl)-4-benzyl-6,7,8,9-tetrahydroimidazo[1,2-a]pyrido[3,4-e]pyrimidine-5(4H)-one], the EC50 on hClpP was under 1000 nM. Further, in the assay on MV4; 11 cells, the IC50 is under 1000 nM.
Take `CNc1ccc(Cn2c(=O)c3c(c4cccnc42)CCN(Cc2cccc(C#N)c2)C3)cc1` [Compound I-89, 6-(4-methylaminobenzyl)-3-(3-cyanobenzyl)-2,3,4,6-tetrahydropyrido[3,4-c][1,8]naphthyridine-5-(1H)-one]: at hClpP, the EC50 was in the range of 1000 to 10000 nM. Besides, in the assay on MV4; 11 cells, the IC50 is 1000 to 10000 nM.
In turn, `O=c1c2c(c3cccnc3n1Cc1ccccc1)CCN(Cc1cccnc1)C2` [Compound I-28, 6-benzyl-3-(pyridin-3-ylmethyl)-2,3,4,6-tetrahydropyrido[3,4-c][1,8]naphthyridine-5-(1H)-one] gave a 50% effective concentration (EC50) at hClpP of 10000 to 100000 nM. The molecule also had an IC50 in the assay on MV4; 11 cells of 1000 to 10000 nM.
On the same counts, the results for `COc1ccc(Cn2c(=O)c3c(c4cccnc42)CCN(Cc2cccc(C#N)c2)C3)cc1` [Compound I-87, 6-(4-methoxybenzyl)-3-(3-cyanobenzyl)-2,3,4,6-tetrahydropyrido[3,4-c][1,8]naphthyridine-5-(1H)-one] are under 1000 nM and under 1000 nM.
The like results for `O=c1c2c(c3ccsc3n1Cc1ccc(C(F)(F)F)cc1)CCN(Cc1ccccc1)C2` [Compound I-104, 7-benzyl-4-(4-trifluoromethylbenzyl)-6,7,8,9-tetrahydrothieno[2,3-C][2,7]naphthyridine-5(4H)-one] were, in that order, under 1000 nM and under 1000 nM.
The molecule `O=c1c2c(n3ncnc3n1Cc1ccc(C(F)(F)F)cc1)CCN(Cc1ccccc1)C2` [Compound I-149, 4-(4-trifluoromethylbenzyl)-7-benzyl-6,7,8,9-tetrahydropyrido[3,4-e][1,2,4]triazolo[1,5-a]pyrimidine-5(4H)-one] had an EC50 at hClpP of 1000 to 10000 nM. Also, in the assay on MV4; 11 cells, the IC50 lay in the range of 1000 to 10000 nM.
On to `O=c1c2c(n3nccc3n1Cc1ccc(Cl)cc1)CCN(Cc1cccc(Cl)c1)C2` [Compound I-162, 4-(4-chlorobenzyl)-7-(3-chlorobenzyl)-6,7,8,9-tetrahydropyrazolo[1,5-a]pyrido[3,4-e]pyrimidine-5(4H)-one], for which the EC50 on hClpP lay within 1000 to 10000 nM. In the assay with MV4; 11 cells, this molecule came in with an IC50 of 1000 to 10000 nM.
Molecule `N#Cc1cccc(CN2CCc3c(c(=O)n(Cc4ccc([N+](=O)[O-])cc4)c4ncccc34)C2)c1` [Compound I-88, 6-(4-nitrobenzyl)-3-(3-cyanobenzyl)-2,3,4,6-tetrahydropyrido[3,4-c][1,8]naphthyridine-5-(1H)-one] registered an EC50 on hClpP of 1000 to 10000 nM. The IC50 in the assay on MV4; 11 cells was 1000 to 10000 nM.

The values are drawn from patent US20240327408A1, “COMPOUNDS CONTAINING TETRAHYDRONAPHTHYRIDINONE OR TETRAHYDROPYRIDOPYRIMIDINONE SKELETON, PREPARATION METHOD THEREFOR AND PHARMACEUTICAL USE THEREOF” (CHINA PHARMACEUTICAL UNIVERSITY, priority 2021, published 2024).
